{"source": "patent US20240124444A1", "about": "(Celgene Corporation, priority 2020, published 2024)", "tested_on": "C. parvum strain UGA1", "experiment": "C. parvum growth inhibition assay (Nluc luminescence in HCT-8 cells)", "format": "cell-based, Cryptosporidium parvum", "conditions": "Cryptosporidium parvum; for EC50: HCT-8, 48 h, C. parvum growth inhibition in HCT-8 cells, 48 hours, 6 concentrations 10-0.04 μM; for inhibition at 1 µM / inhibition at 10 µM: HCT-8; for inhibition at 1 µM: read-out: % inh @ 1 uM C. parvum; for inhibition at 10 µM: read-out: % inh @ 10 uM C. parvum", "key": {"[1]": {"conditions": "single point inhibition at 1 uM"}, "[2]": {"conditions": "single point inhibition at 10 uM"}, "[3]": {"conditions": "single point inhibition @ 10 uM"}}, "note": "Read-outs that look alike come from different tables or passages of the source."}
{"smiles": "FC(F)(F)CNc1nccc(-c2cc3cnc(NC4CCOC4)cc3[nH]2)n1", "note": "(stereo in doubt) [Example 374, (S)-N-(tetrahydrofuran-3-yl)-2-(2-(2,2,2-trifluoroethylamino)pyrimidin-4-yl)-1H-pyrrolo[3,2-c]pyridin-6-amine]", "values": [{"measurement": "EC50", "result": "0.5 to 1", "unit": "µM"}]}
{"smiles": "FC(F)(F)CNc1nccc(-c2cc3cnc(NC4CCC4)cc3[nH]2)n1", "note": "[Example 373, N-cyclobutyl-2-(2-(2,2,2-trifluoroethylamino)pyrimidin-4-yl)-1H-pyrrolo[3,2-c]pyridin-6-amine]", "values": [{"measurement": "EC50", "result": "0.5 to 1", "unit": "µM"}]}
{"smiles": "Cc1ccc(-c2cc3cnc(NC(=O)C4CC4)cc3n2C)nc1", "note": "[Example 347, N-(1-methyl-2-(5-methylpyridin-2-yl)-1H-pyrrolo[3,2-c]pyridin-6-yl)cyclopropanecarboxamide]", "values": [{"measurement": "EC50", "result": "> 1", "unit": "µM"}]}
{"smiles": "Cc1nn(C)cc1C(=O)Nc1cc2c(cn1)cc(-c1ccnc(NCC(F)(F)F)n1)n2C", "note": "[Example 240, 1,3-dimethyl-N-(1-methyl-2-(2-(2,2,2-trifluoroethylamino)pyrimidin-4-yl)-1H-pyrrolo[3,2-c]pyridin-6-yl)-1H-pyrazole-4-carboxamide]", "values": [{"measurement": "inhibition at 1 µM", "setting": "[1]", "result": "0 to 33", "unit": "%"}, {"measurement": "inhibition at 10 µM", "setting": "[2]", "result": "0 to 33", "unit": "%"}]}
{"smiles": "c1nc(NC2CCOCC2)cc2[nH]c(C3CCCCC3)cc12", "note": "[Example 26, 2-Cyclohexyl-N-(tetrahydro-2H-pyran-4-yl)-1H-pyrrolo[3,2-c]pyridin-6-amine]", "values": [{"measurement": "EC50", "result": "> 1", "unit": "µM"}]}
{"smiles": "Cn1ncc2ccc(Nc3cc4[nH]c(-c5ccncc5)cc4cn3)cc21", "note": "[Example 195, 1-methyl-N-(2-(pyridin-4-yl)-1H-pyrrolo[3,2-c]pyridin-6-yl)-1H-indazol-6-amine]", "values": [{"measurement": "inhibition at 1 µM", "setting": "single point inhibition @ 1 uM", "result": "67 to 100", "unit": "%"}, {"measurement": "inhibition at 10 µM", "setting": "[3]", "result": "67 to 100", "unit": "%"}]}
{"smiles": "Cn1cc(C(=O)Nc2cc3[nH]c(-c4cnc(C#N)cn4)cc3cn2)cn1", "note": "[Example 303, N-(2-(5-cyanopyrazin-2-yl)-1H-pyrrolo[3,2-c]pyridin-6-yl)-1-methyl-1H-pyrazole-4-carboxamide]", "values": [{"measurement": "inhibition at 1 µM", "setting": "[1]", "result": "0 to 33", "unit": "%"}, {"measurement": "inhibition at 10 µM", "setting": "[2]", "result": "0 to 33", "unit": "%"}]}
{"smiles": "Cc1cc(-c2cc3cnc(NC(=O)c4cc(C(F)F)nn4C)cc3[nH]2)ccn1", "note": "[Example 218, 3-(difluoromethyl)-1-methyl-N-(2-(2-methylpyridin-4-yl)-1H-pyrrolo[3,2-c]pyridin-6-yl)-1H-pyrazole-5-carboxamide]", "values": [{"measurement": "inhibition at 1 µM", "setting": "[1]", "result": "0 to 33", "unit": "%"}, {"measurement": "inhibition at 10 µM", "setting": "[2]", "result": "33 to 66", "unit": "%"}]}
{"smiles": "Cn1c(-c2ccccc2)cc2cnc(NC(=O)C3CCOCC3)cc21", "note": "[Example 265, N-(1-methyl-2-phenyl-1H-pyrrolo[3,2-c]pyridin-6-yl)tetrahydro-2H-pyran-4-carboxamide]", "values": [{"measurement": "inhibition at 1 µM", "setting": "[1]", "result": "0 to 33", "unit": "%"}, {"measurement": "inhibition at 10 µM", "setting": "[2]", "result": "0 to 33", "unit": "%"}]}
{"smiles": "O=C(CC1CCOCC1)Nc1cc2[nH]c(-c3ccncc3)cc2cn1", "note": "[Example 143, N-(2-(pyridin-4-yl)-1H-pyrrolo[3,2-c]pyridin-6-yl)-2-(tetrahydro-2H-pyran-4-yl)acetamide]", "values": [{"measurement": "inhibition at 1 µM", "setting": "single point inhibition @ 1 uM", "result": "0 to 33", "unit": "%"}, {"measurement": "inhibition at 10 µM", "setting": "[3]", "result": "67 to 100", "unit": "%"}]}
{"smiles": "Cc1cc(-c2cc3cnc(NC(=O)c4cnn(C5CCOC5)c4)cc3[nH]2)ccn1", "note": "(centres unmarked) [Example 236, N-(2-(2-methylpyridin-4-yl)-1H-pyrrolo[3,2-c]pyridin-6-yl)-1-(tetrahydrofuran-3-yl)-1H-pyrazole-4-carboxamide]", "values": [{"measurement": "inhibition at 1 µM", "setting": "[1]", "result": "33 to 66", "unit": "%"}, {"measurement": "inhibition at 10 µM", "setting": "[2]", "result": "33 to 66", "unit": "%"}]}
{"smiles": "COc1nccc(-c2cc3cnc(NC(=O)C(C)(C)C)cc3[nH]2)n1", "note": "[Example 297, N-(2-(2-methoxypyrimidin-4-yl)-1H-pyrrolo[3,2-c]pyridin-6-yl)pivalamide]", "values": [{"measurement": "inhibition at 1 µM", "setting": "[1]", "result": "0 to 33", "unit": "%"}, {"measurement": "inhibition at 10 µM", "setting": "[2]", "result": "0 to 33", "unit": "%"}]}
{"smiles": "Cc1cc(-c2cc3cnc(NC(=O)c4cnn(C5CCC5)c4)cc3[nH]2)ccn1", "note": "[Example 205, 1-cyclobutyl-N-(2-(2-methylpyridin-4-yl)-1H-pyrrolo[3,2-c]pyridin-6-yl)-1H-pyrazole-4-carboxamide]", "values": [{"measurement": "inhibition at 1 µM", "setting": "[1]", "result": "0 to 33", "unit": "%"}, {"measurement": "inhibition at 10 µM", "setting": "[2]", "result": "67 to 100", "unit": "%"}]}
{"smiles": "Cn1c(-c2cnco2)cc2cnc(NC(=O)C3CC3)cc21", "note": "[Example 74, N-(1-methyl-2-(oxazol-5-yl)-1H-pyrrolo[3,2-c]pyridin-6-y)cyclopropanecarboxamide]", "values": [{"measurement": "EC50", "result": "> 1", "unit": "µM"}]}
{"smiles": "O=C(Nc1cc2[nH]c(-c3ccncc3)cc2cn1)c1cnn(C2CCOCC2)c1", "note": "[Example 154, N-(2-(pyridin-4-yl)-1H-pyrrolo[3,2-c]pyridin-6-yl)-1-(tetrahydro-2H-pyran-4-yl)-1H-pyrazole-4-carboxamide]", "values": [{"measurement": "inhibition at 1 µM", "setting": "single point inhibition @ 1 uM", "result": "0 to 33", "unit": "%"}, {"measurement": "inhibition at 10 µM", "setting": "[3]", "result": "67 to 100", "unit": "%"}]}
{"smiles": "O=C(Nc1cc2[nH]c(-c3nc[nH]n3)cc2cn1)C1CC1", "note": "[Example 201, N-(2-(1H-1,2,4-triazol-3-yl)-1H-pyrrolo[3,2-c]pyridin-6-yl)cyclopropanecarboxamide]", "values": [{"measurement": "inhibition at 1 µM", "setting": "[1]", "result": "0 to 33", "unit": "%"}, {"measurement": "inhibition at 10 µM", "setting": "[2]", "result": "67 to 100", "unit": "%"}]}
{"smiles": "CCc1nccc(-c2cc3cnc(NC4CCOCC4)cc3n2C)n1", "note": "[Example 387, 2-(2-ethylpyrimidin-4-yl)-1-methyl-N-(tetrahydro-2H-pyran-4-yl)-1H-pyrrolo[3,2-c]pyridin-6-amine]", "values": [{"measurement": "EC50", "result": "> 1", "unit": "µM"}]}
{"smiles": "Cn1c(-c2ccnc(NCC(F)(F)F)n2)cc2cnc(NC3CCOCC3)cc21", "note": "[Example 358, 1-methyl-N-(tetrahydro-2H-pyran-4-yl)-2-(2-(2,2,2-trifluoroethylamino)pyrimidin-4-yl)-1H-pyrrolo[3,2-c]pyridin-6-amine]", "values": [{"measurement": "EC50", "result": "< 0.5", "unit": "µM"}]}
{"smiles": "FC(F)(F)CCc1nccc(-c2cc3cnc(NC4CCOCC4)cc3[nH]2)n1", "note": "[Example 385, N-(tetrahydro-2H-pyran-4-yl)-2-(2-(3,3,3-trifluoropropyl)pyrimidin-4-yl)-1H-pyrrolo[3,2-c]pyridin-6-amine]", "values": [{"measurement": "EC50", "result": "> 1", "unit": "µM"}]}
{"smiles": "Cc1cc(-c2cc3cnc(NC4CCOCC4)cc3[nH]2)nc(C)n1", "note": "[Example 393, 2-(2,6-dimethylpyrimidin-4-yl)-N-(tetrahydro-2H-pyran-4-yl)-1H-pyrrolo[3,2-c]pyridin-6-amine]", "values": [{"measurement": "EC50", "result": "> 1", "unit": "µM"}]}
{"smiles": "O=C(Nc1cc2[nH]c(-c3ccnc(OCCC(F)(F)F)n3)cc2cn1)c1cnn([C@H]2CC[C@H](O)CC2)c1", "note": "[Example 216, 1-((1r,4r)-4-hydroxycyclohexyl)-N-(2-(2-(3,3,3-trifluoropropoxy)pyrimidin-4-yl)-1H-pyrrolo[3,2-c]pyridin-6-yl)-1H-pyrazole-4-carboxamide]", "values": [{"measurement": "inhibition at 1 µM", "setting": "[1]", "result": "0 to 33", "unit": "%"}, {"measurement": "inhibition at 10 µM", "setting": "[2]", "result": "67 to 100", "unit": "%"}]}
{"smiles": "O[C@H]1CC[C@@H](Nc2cc3[nH]c(-c4cccnc4)cc3cn2)CC1", "note": "[Example 251, (1s,4s)-4-(2-(pyridin-3-yl)-1H-pyrrolo[3,2-c]pyridin-6-ylamino)cyclohexanol]", "values": [{"measurement": "inhibition at 1 µM", "setting": "[1]", "result": "0 to 33", "unit": "%"}, {"measurement": "inhibition at 10 µM", "setting": "[2]", "result": "0 to 33", "unit": "%"}]}
{"smiles": "CC(C)n1cc(C(=O)Nc2cc3[nH]c(-c4ccnc(OC(C)C(F)(F)F)n4)cc3cn2)cn1", "note": "(centres unmarked) [Example 149, 1-isopropyl-N-(2-(2-(1,1,1-trifluoropropan-2-yloxy)pyrimidin-4-yl)-1H-pyrrolo[3,2-c]pyridin-6-yl)-1H-pyrazole-4-carboxamide]", "values": [{"measurement": "inhibition at 1 µM", "setting": "single point inhibition @ 1 uM", "result": "0 to 33", "unit": "%"}, {"measurement": "inhibition at 10 µM", "setting": "[3]", "result": "67 to 100", "unit": "%"}]}
{"smiles": "COc1nc(C)cc(-c2cc3cnc(NC(=O)c4cnn(C)c4)cc3[nH]2)n1", "note": "[Example 315, N-(2-(2-methoxy-6-methylpyrimidin-4-yl)-1H-pyrrolo[3,2-c]pyridin-6-yl)-1-methyl-1H-pyrazole-4-carboxamide]", "values": [{"measurement": "inhibition at 1 µM", "setting": "[1]", "result": "0 to 33", "unit": "%"}, {"measurement": "inhibition at 10 µM", "setting": "[2]", "result": "0 to 33", "unit": "%"}]}
{"smiles": "CC(C)CC(=O)Nc1cc2[nH]c(-c3ccncc3)cc2cn1", "note": "[Example 134, 3-methyl-N-(2-(pyridin-4-yl)-1H-pyrrolo[3,2-c]pyridin-6-yl)butanamide]", "values": [{"measurement": "inhibition at 1 µM", "setting": "single point inhibition @ 1 uM", "result": "0 to 33", "unit": "%"}, {"measurement": "inhibition at 10 µM", "setting": "[3]", "result": "67 to 100", "unit": "%"}]}
